Results reported in US20260265055A1, “Sulfine-Based Compounds for Generating Hydrogen Persulfide” (Brown University, priority 2023, published 2026).

Tests used:
[1] = Monitoring H2S2 formation from the TTS-TAGDD hybrid compound 3 (SSP4, 12 h); conditions: over 12 hours
Experimental: Monitoring H2S2 formation from the TTS-TAGDD hybrid compound 3: TTS and 3 were prepared as 1 mM solutions in DMSO. L-cysteine and Na2S2 were prepared at 4 mM and 1 mM in MilliQ H2O, respectively. SSP4 was dissolved in DMSO to obtain a 200 μM stock solution. CTAB was dissolved in ethanol to yield a 2 mM stock solution. 50 mM PBS buffer (pH 7.4) was added to individual wells of a black polystyrene, flat-bottomed clear 96-well plate, followed by TTS (25 μM) or 3 (25 μM) then cysteine (100 μM) or Na2S2 (25 μM). Samples were mixed by pipetting up and down and incubated in the dark at room temperature (rt) for 30 min. Next, CTAB (50 μM) was added to all wells followed by SSP4 (5 μM), and samples were mixed by pipetting up and down. Samples were then incubated in the dark at room temperature for another 30 min before being measured on a Molecular Devices SpectraMax iD3 Multi-Mode Microplate Reader (fluorescence mode; kinetics measurement type; emission 535 nm; excitation 485 nm; integration time […], low PMT sensitivity, attenuation 1, read height 1.00 mm; total run time: 12 hours; 25 cycles; interval: 0.5 hours). Data was graphed as a time dependent fluorescence response, with F0 as the SSP4 only condition. The fluorescence of Na2S2 over time was not represented in the line graph presented due to the compound's known instability. Data obtained from the 12 h time point including from Na2S2 was also represented in a bar graph for greater clarity. Results were expressed as mean±SEM (n=3).

GAPDH = biological target: T1, GAPDH (Oryctolagus cuniculus, UniProt P46406); test: GAPDH protein S-persulfidation (SSP4 fluorescence, LC-MS/MS); format: biochemical, rabbit; conditions: reduced GAPDH 100 μM treated with the reagent only (1 mM)
T1 construct: GAPDH (from rabbit muscle, #G2267, Sigma-Aldrich); purchased Sigma-Aldrich G2267; host or cells: rabbit muscle (tissue-purified)
Experimental: One of the primary functions of H2S2 is to induce protein S-persulfidation. Existing methods treat proteins with Na2S2 directly to obtain the persulfidated proteins. The present disclosure contemplates the use of TTS and H2S to persulfidate proteins as a comparison with Na2S2. GAPDH was used as the protein model and its persulfidation was evaluated by SSP4 using a protocol described in Shieh, M. et al., Shining a light on SSP4: a comprehensive analysis and biological applications for the detection of sulfane sulfurs. Redox Biol. 2022, 56, 102433 and Ni, X. et al., A sweet H2S/H2O2 dual release system and specific protein S-persulfidation mediated by thioglucose/glucose oxidase. J. Am. Chem. Soc. 2021, 143, 13325-13332. Reduced GAPDH (100 μM) was individually treated with 10 eq. of TTS+Na2S or Na2S2, as well as control reagents (TTS or Na2S only). The protein samples were then purified using Zeba Spin Desalting Columns (7K MWCO), diluted (to 10 μM), and treated with SSP4 (5 μM). Fluorescence signals were recorded to reflect persulfidation levels. […] To provide further evidence of persulfidation in the GAPDH system, TTS+Na2S-treated GAPDH was alkylated with HPE-IAM to stabilize the protein persulfides.
216 μL of PBS (50 mM, pH 7.4) was added to 3.9 mg of GAPDH (from rabbit muscle, #G2267, Sigma-Aldrich) to obtain a concentration of 500 μM (MW: 36 kDa). DTT (10 mM in DMSO, 11.35 μL) was added for a final equal concentration with the GAPDH. The solution was incubated in the dark at room temperature for 30 min. Zeba 7K MWCO spin columns were prepared and used according to manufacturer's instructions with 3 PBS washes. Excess reductant was removed by column purification with the Zeba 7K MWCO columns. The resulting reduced protein concentration was determined by the absorbance at 280 nm (εmM=30.4 mM-1 cm-1) using the Nanodrop One Microvolume UV-Vis Spectrophotometer (ThermoFisher Scientific). For controls, reduced GAPDH was treated with NEM (1:5 equiv.) and incubated at rt in the dark for 30 min before excess NEM was removed by the Zeba 7K MWCO columns. Next, the reduced protein was diluted to a final concentration of 100 μM in a final volume of 100 μL and treated with TTS (10 μL of 10 mM in DMSO for a final concentration of 1 mM), Na2S (10 μL of 10 mM in MilliQ H2O for a final concentration of 1 mM), both TTS and Na2S, or Na2S2 (10 μL of 10 mM in MilliQ H2O for a final concentration of 1 mM). For example, if the reduced protein (361 μM) was only to be treated with TTS, 62.3 μL of PBS (50 mM, pH 7.4) would first be added to an Eppendorf tube, followed by 27.7 μL of protein, and followed by 10 μL of TTS. TTS+Na2S and Na2S2 samples were also prepared at the concentrations above without any protein, where PBS (50 mM, pH 7.4) was used in place of the proteins (volume-wise). Samples were incubated at room temperature for 30 min in the dark before being purified by Zeba 7K MWCO columns (three times to ensure proper removal of excess treatment molecules) and quantified by absorbance. […] All samples were then incubated with SSP4 (5 μL of 100 μM in DMSO for a final concentration of 5 μM) in individual wells of a black clear flat bottom 96-well plate. The final volume was 100 μL. For example, if the persulfidated protein (99.5 μM) was to be examined, 84.95 μL of PBS (50 mM, pH 7.4) would first be added to a well, followed by 10.05 μL of protein, and then followed by 5 μL of SSP4. Incubation occurred at room temperature in the dark for 30 min before being measured on the SpectraMax iD3 microplate reader (ex: 485 nm; em: 525 nm).

HeLa cells = test: Live cell imaging of H2S2 formation with SSP4; format: cell-based; conditions: compound only, 30 min
Experimental: HeLa cells were seeded at ~7000 cells/well in a 96-well clear flat-bottomed BioLite plate (ThermoFisher Scientific, #130188) in DMEM/F12 (1:1) (Gibco, Invitrogen, #11330-032) medium supplemented with 10% fetal bovine serum (FBS) at 37° C., 5% CO2 overnight.
Preparation before cell treatment: Na2S and Na2S2 stocks were prepared at 10 mM in sterile 1×PBS. TTS and TT were prepared at 10 mM concentrations in DMSO. They were then diluted to 50 μM concentrations in serum-free Fluorobrite DMEM in individual Eppendorf tubes (0.5% DMSO). Na2S (final concentration=100 μM) was added to the Eppendorf tube containing Fluorobrite DMEM and TTS or TT immediately before being added to the cells. Compounds were mixed by pipetting up and down prior to cell addition.
Cell treatment: Culturing media was aspirated from all wells, and cells were washed twice with 1×PBS. Compounds were added to cells (200 μL/well) and incubated for 30 min at 37° C., 5% CO2. While cells were incubating, SSP4 treatment was prepared by first adding 5 mM CTAB in ethanol to Fluorobrite DMEM followed by 6.125 mM SSP4 in DMSO to final concentrations of 100 μM and 5 μM, respectively, in a tube. The final volume was 5 mL (0.08% DMSO). Compounds were mixed by pipetting up and down prior to cell addition. After incubation, media was aspirated, and cells were washed twice with 1×PBS. SSP4 treatment was added to all wells (100 μL/well), and cells were incubated for 30 min at 37° C., 5% CO2 for 30 min. Media was then aspirated, and cells were washed three times with 1×PBS. Fluorobrite DMEM was added to all wells before imaging on the Keyence All-in-One Fluorescence Microscope (BZ-X810) (excitation: 470/40 nm; emission: 525/50 nm).
As shown in FIGS. 4(A)-(D), HeLa cells were treated with TTS, TTS+H2S, or TT for 30 min before the fluorescent sensor SSP4 was applied to the cells to monitor the formation of H2S2. […] Na2S2 was used as the positive control in this study (FIG. 4D). Other control studies including TT+H2S, H2S only, and SSP4 only were also performed. […] FIG. 4H is a graph of fluorescence intensities of SSP4 staining. Data are mean values ±SEM calculated using ImageJ. (n=9, where three different images were obtained from each of three samples and quantified).

T1 sequence (P46406 whole entry): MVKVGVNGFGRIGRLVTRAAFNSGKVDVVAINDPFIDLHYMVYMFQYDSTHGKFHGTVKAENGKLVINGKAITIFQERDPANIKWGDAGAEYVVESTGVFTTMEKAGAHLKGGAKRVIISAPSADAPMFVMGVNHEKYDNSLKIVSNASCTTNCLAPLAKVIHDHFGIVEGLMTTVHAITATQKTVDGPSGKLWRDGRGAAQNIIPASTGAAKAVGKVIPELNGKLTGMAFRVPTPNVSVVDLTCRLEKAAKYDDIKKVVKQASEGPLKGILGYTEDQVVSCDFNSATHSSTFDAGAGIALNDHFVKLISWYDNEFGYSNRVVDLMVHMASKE

Structure (SMILES)	H2S2 formation monitored by SSP4 signals ([1]; 25 μM compound + Cys 100 μM)	SSP4 fluorescence ([1]; 25 μM compound only)	SSP4 fluorescence of persulfidated GAPDH (GAPDH)	SSP4 fluorescence in HeLa cells (HeLa cells)
CC(=O)SC(SC(C)=O)c1cccc(OC(=O)c2ccc(=S=O)sc2)c1 [Compound 3]	steady and continuous H2S2 formation	did not give any notable fluorescence	–	–
[Na+].[Na+].[S-][S-] [Na2S2, reference compound]	–	–	strong fluorescence	–
[Na+].[Na+].[S-2] [Na2S, reference compound]	–	–	did not give any notable fluorescence	Obvious fluorescence in these samples was not observed
